According to US20070010671A1, “Novel quinazoline derivatives and methods of treatment related to the use thereof” (priority 2003, published 2007):

What follows are compounds tested against MCH receptor (Homo sapiens, UniProt Q99705) (assay: High throughput functional screening FLIPR/FDSS6000: inhibition of MCH-evoked intracellular Ca2+ changes). Details: class by percent of control at 10^-7 M or IC50.
Type: cell-based
Method in brief: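 Cells expressing a non-endogenous, constitutively active MCH receptor were loaded with 4 μM Fluo4-AM (with probenecid) for 1 hr at 37° C. Test compound was preincubated 3 min at 37° C before 50 nM MCH was added. The [Ca2+]i transient was read at Ex 488/Em 530 nm for 290 s.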

SMILES | class
CC(C)c1ccccc1NC(=O)NC[C@H]1CC[C@@H](Nc2nc(N(C)C)c3ccccc3n2)CC1 [compound 502, N-[(cis-4-{[4-(dimethylamino)quinazolin-2-yl]amino}cyclohexyl)methyl]-N′-(2-isopropylphenyl)urea] | 1 (Class 1: The value of percent of control at 10^−7 M was less than 40% or the value of IC50 was less than 50 nM.)
COc1cc([N+](=O)[O-])ccc1NC(=O)NC[C@H]1CC[C@@H](Nc2nc(N(C)C)c3ccccc3n2)CC1 [compound 503] | 3 (Class 3: The value of percent of control at 10^−7 M was more than 60% or the value of IC50 was more than 200 nM.)
COc1ccc(C)cc1NC(=O)NC[C@H]1CC[C@@H](Nc2nc(N(C)C)c3ccccc3n2)CC1 [compound 504] | 1 (Class 1: The value of percent of control at 10^−7 M was less than 40% or the value of IC50 was less than 50 nM.)
COc1ccc([N+](=O)[O-])cc1NC(=O)NC[C@H]1CC[C@@H](Nc2nc(N(C)C)c3ccccc3n2)CC1 [compound 505, N-[(cis-4-{[4-(dimethylamino)quinazolin-2-yl]amino}cyclohexyl)methyl]-N′-(2-methoxy-5-nitrophenyl)urea] | 2 (Class 2: The value of percent of control at 10^−7 M was from 40% to 60% or the value of IC50 was from 50 nM to 200 nM.)
Cc1c(NC(=O)NC[C@H]2CC[C@@H](Nc3nc(N(C)C)c4ccccc4n3)CC2)cccc1[N+](=O)[O-] [compound 506, N-[(cis-4-{[4-(dimethylamino)quinazolin-2-yl]amino}cyclohexyl)methyl]-N′-(2-methyl-3-nitrophenyl)urea] | 1 (Class 1: The value of percent of control at 10^−7 M was less than 40% or the value of IC50 was less than 50 nM.)
Cc1cccc([N+](=O)[O-])c1NC(=O)NC[C@H]1CC[C@@H](Nc2nc(N(C)C)c3ccccc3n2)CC1 [compound 509, N-[(cis-4-{[4-(dimethylamino)quinazolin-2-yl]amino}cyclohexyl)methyl]-N′-(2-methyl-6-nitrophenyl)urea] | 1 (Class 1: The value of percent of control at 10^−7 M was less than 40% or the value of IC50 was less than 50 nM.)
Cc1ccccc1CNC(=O)NC[C@H]1CC[C@@H](Nc2nc(N(C)C)c3ccccc3n2)CC1 [compound 510, N-[(cis-4-{[4-(dimethylamino)quinazolin-2-yl]amino}cyclohexyl)methyl]-N′-(2-methylbenzyl)urea] | 2 (Class 2: The value of percent of control at 10^−7 M was from 40% to 60% or the value of IC50 was from 50 nM to 200 nM.)
CN(C)c1nc(N[C@H]2CC[C@@H](CNC(=O)Nc3ccc4ccccc4c3)CC2)nc2ccccc12 [compound 511] | 3 (Class 3: The value of percent of control at 10^−7 M was more than 60% or the value of IC50 was more than 200 nM.)
CN(C)c1nc(N[C@H]2CC[C@@H](CNC(=O)Nc3ccccc3[N+](=O)[O-])CC2)nc2ccccc12 [compound 512, N-[(cis-4-{[4-(dimethylamino)quinazolin-2-yl]amino}cyclohexyl)methyl]-N′-(2-nitrophenyl)urea] | 2 (Class 2: The value of percent of control at 10^−7 M was from 40% to 60% or the value of IC50 was from 50 nM to 200 nM.)
CCCc1ccccc1NC(=O)NC[C@H]1CC[C@@H](Nc2nc(N(C)C)c3ccccc3n2)CC1 [compound 513, N-[(cis-4-{[4-(dimethylamino)quinazolin-2-yl]amino}cyclohexyl)methyl]-N′-(2-propylphenyl)urea] | 1 (Class 1: The value of percent of control at 10^−7 M was less than 40% or the value of IC50 was less than 50 nM.)
CN(C)c1nc(N[C@H]2CC[C@@H](CNC(=O)Nc3ccccc3Oc3ccccc3)CC2)nc2ccccc12 [compound 514, N-[(cis-4-{[4-(dimethylamino)quinazolin-2-yl]amino}cyclohexyl)methyl]-N′-(2-phenoxyphenyl)urea] | 2 (Class 2: The value of percent of control at 10^−7 M was from 40% to 60% or the value of IC50 was from 50 nM to 200 nM.)
Cc1cccc(C(C)(C)C)c1NC(=O)NC[C@H]1CC[C@@H](Nc2nc(N(C)C)c3ccccc3n2)CC1 [compound 515, N-(2-tert-butyl-6-methylphenyl)-N′-[(cis-4-{[4-(dimethylamino)quinazolin-2-yl]amino}cyclohexyl)methyl]urea] | 1 (Class 1: The value of percent of control at 10^−7 M was less than 40% or the value of IC50 was less than 50 nM.)
CN(C)c1nc(N[C@H]2CC[C@@H](CNC(=O)Nc3ccccc3C(C)(C)C)CC2)nc2ccccc12 [compound 516, N-(2-tert-butylphenyl)-N′-[(cis-4-{[4-(dimethylamino)quinazolin-2-yl]amino}cyclohexyl)methyl]urea] | 1 (Class 1: The value of percent of control at 10^−7 M was less than 40% or the value of IC50 was less than 50 nM.)
CSc1cccc(NC(=O)NC[C@H]2CC[C@@H](Nc3nc(N(C)C)c4ccccc4n3)CC2)c1 [compound 517, N-[(cis-4-{[4-(dimethylamino)quinazolin-2-yl]amino}cyclohexyl)methyl]-N′-[3-(methylthio)phenyl]urea] | 2 (Class 2: The value of percent of control at 10^−7 M was from 40% to 60% or the value of IC50 was from 50 nM to 200 nM.)
CN(C)c1nc(N[C@H]2CC[C@@H](CNC(=O)Nc3cccc(SC(F)(F)F)c3)CC2)nc2ccccc12 [compound 518] | 3 (Class 3: The value of percent of control at 10^−7 M was more than 60% or the value of IC50 was more than 200 nM.)
CN(C)c1nc(N[C@H]2CC[C@@H](CNC(=O)Nc3ccc4c(c3)OCO4)CC2)nc2ccccc12 [compound 519] | 3 (Class 3: The value of percent of control at 10^−7 M was more than 60% or the value of IC50 was more than 200 nM.)
COc1cc(NC(=O)NC[C@H]2CC[C@@H](Nc3nc(N(C)C)c4ccccc4n3)CC2)cc(OC)c1OC [compound 520] | 3 (Class 3: The value of percent of control at 10^−7 M was more than 60% or the value of IC50 was more than 200 nM.)
CN(C)c1nc(N[C@H]2CC[C@@H](CNC(=O)NCc3ccc(Cl)c(Cl)c3)CC2)nc2ccccc12 [compound 521] | 3 (Class 3: The value of percent of control at 10^−7 M was more than 60% or the value of IC50 was more than 200 nM.)
CN(C)c1nc(N[C@H]2CC[C@@H](CNC(=O)Nc3ccc(F)c(F)c3)CC2)nc2ccccc12 [compound 522, N-(3,4-difluorophenyl)-N′-[(cis-4-{[4-(dimethylamino)quinazolin-2-yl]amino}cyclohexyl)methyl]urea] | 1 (Class 1: The value of percent of control at 10^−7 M was less than 40% or the value of IC50 was less than 50 nM.)
COc1ccc(NC(=O)NC[C@H]2CC[C@@H](Nc3nc(N(C)C)c4ccccc4n3)CC2)cc1OC [compound 523] | 3 (Class 3: The value of percent of control at 10^−7 M was more than 60% or the value of IC50 was more than 200 nM.)
COc1cc(NC(=O)NC[C@H]2CC[C@@H](Nc3nc(N(C)C)c4ccccc4n3)CC2)cc(OC)c1 [compound 525] | 2 (Class 2: The value of percent of control at 10^−7 M was from 40% to 60% or the value of IC50 was from 50 nM to 200 nM.)
Cc1cc(C)cc(NC(=O)NC[C@H]2CC[C@@H](Nc3nc(N(C)C)c4ccccc4n3)CC2)c1 [compound 526] | 3 (Class 3: The value of percent of control at 10^−7 M was more than 60% or the value of IC50 was more than 200 nM.)
COC(=O)c1cccc(NC(=O)NC[C@H]2CC[C@@H](Nc3nc(N(C)C)c4ccccc4n3)CC2)c1 [compound 527] | 3 (Class 3: The value of percent of control at 10^−7 M was more than 60% or the value of IC50 was more than 200 nM.)
